Here are results for 22 molecules from patent US20080234262A1 (Wyeth, priority 2007, published 2008).

Each structure is given as a SMILES string. pIC50: −log10 of the molar value.

As a reminder, the pIC50 is −log10 of the IC50, conventionally taken in molar units.

This test deals with PI3K (Homo sapiens, UniProt P42336). Description: Fluorescence polarization assay for PI3K.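 Note: PI3K kinase reaction on PIP2 with ATP, 30-60 min, product sensed by GST-GRP with red probe in fluorescence polarization (mP), controls without enzyme and at zero time.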 In kind it is biochemical. Particulars: PI3Kα; read-out: PI3Kα IC50. Background: Polarisation of emitted light reports the rotation of a fluorescent probe.
Sequence of PI3K (P42336 whole entry): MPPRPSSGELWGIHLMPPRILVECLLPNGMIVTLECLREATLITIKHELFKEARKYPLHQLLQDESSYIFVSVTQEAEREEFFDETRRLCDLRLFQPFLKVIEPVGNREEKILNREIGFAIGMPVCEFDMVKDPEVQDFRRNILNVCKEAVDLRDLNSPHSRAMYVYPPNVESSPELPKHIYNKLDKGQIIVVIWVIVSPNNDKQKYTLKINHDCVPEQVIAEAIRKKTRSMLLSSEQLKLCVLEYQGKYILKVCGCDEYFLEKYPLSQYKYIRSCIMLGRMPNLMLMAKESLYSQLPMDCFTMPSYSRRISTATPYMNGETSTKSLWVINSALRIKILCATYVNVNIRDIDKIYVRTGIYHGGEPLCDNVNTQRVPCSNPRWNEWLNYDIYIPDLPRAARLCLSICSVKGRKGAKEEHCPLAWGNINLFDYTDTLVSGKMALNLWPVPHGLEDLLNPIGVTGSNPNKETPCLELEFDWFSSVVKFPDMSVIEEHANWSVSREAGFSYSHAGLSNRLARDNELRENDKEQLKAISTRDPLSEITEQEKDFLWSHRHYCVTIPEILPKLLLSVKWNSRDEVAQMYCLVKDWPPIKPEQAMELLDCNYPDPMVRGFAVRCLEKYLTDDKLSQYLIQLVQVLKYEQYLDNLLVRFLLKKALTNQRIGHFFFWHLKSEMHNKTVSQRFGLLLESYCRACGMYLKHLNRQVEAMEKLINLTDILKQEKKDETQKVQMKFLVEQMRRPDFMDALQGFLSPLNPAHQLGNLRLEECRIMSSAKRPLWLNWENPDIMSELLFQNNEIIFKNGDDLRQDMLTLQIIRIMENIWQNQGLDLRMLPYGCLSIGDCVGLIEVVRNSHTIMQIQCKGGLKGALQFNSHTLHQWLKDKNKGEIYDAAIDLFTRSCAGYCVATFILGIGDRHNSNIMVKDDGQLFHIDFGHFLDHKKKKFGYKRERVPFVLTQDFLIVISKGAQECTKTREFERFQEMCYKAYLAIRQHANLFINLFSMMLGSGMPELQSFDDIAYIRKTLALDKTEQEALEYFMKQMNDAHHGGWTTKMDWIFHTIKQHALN
Sequence of PI3K (P27986 whole entry partner): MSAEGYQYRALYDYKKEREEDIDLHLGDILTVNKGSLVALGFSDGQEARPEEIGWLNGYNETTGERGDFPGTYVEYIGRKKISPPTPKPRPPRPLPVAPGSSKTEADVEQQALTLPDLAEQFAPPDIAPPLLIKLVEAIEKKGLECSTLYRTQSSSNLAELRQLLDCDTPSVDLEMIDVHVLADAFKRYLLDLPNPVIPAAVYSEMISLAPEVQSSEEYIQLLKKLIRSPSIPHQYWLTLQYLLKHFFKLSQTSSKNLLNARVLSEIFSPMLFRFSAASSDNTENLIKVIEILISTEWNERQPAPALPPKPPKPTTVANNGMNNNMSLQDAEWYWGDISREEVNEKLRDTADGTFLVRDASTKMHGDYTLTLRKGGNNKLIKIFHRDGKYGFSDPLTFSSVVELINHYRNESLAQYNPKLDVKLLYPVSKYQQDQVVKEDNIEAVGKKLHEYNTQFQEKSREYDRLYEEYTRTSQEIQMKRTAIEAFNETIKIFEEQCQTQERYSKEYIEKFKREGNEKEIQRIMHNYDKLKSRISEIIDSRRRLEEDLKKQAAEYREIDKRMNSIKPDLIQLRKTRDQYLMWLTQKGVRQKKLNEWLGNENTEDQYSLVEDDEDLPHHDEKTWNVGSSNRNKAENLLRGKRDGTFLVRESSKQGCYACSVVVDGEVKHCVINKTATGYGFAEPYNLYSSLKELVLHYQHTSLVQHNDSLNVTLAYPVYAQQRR
For the molecule `COC(=O)Nc1ccc(-c2nc(N3CCOCC3)c3cnn(C4CCN(C(=O)c5ccccc5OC)CC4)c3n2)cc1` [Compound 690, methyl (4-{1-[1-(2-methoxybenzoyl)piperidin-4-yl]-4-morpholin-4-yl-1H-pyrazolo[3,4-d]pyrimidin-6-yl}phenyl)carbamate], the negative-log IC50 (pIC50) was 6.05.

For `COC(=O)Nc1ccc(-c2nc(N3CCOCC3)c3cnn(C4CCN(C(=O)N5CCN(C)CC5)CC4)c3n2)cc1` [Compound 692, methyl [4-(1-{1-[(4-methylpiperazin-1-yl)carbonyl]piperidin-4-yl}-4-morpholin-4-yl-1H-pyrazolo[3,4-d]pyrimidin-6-yl)phenyl]carbamate], the pIC50 is 6.14.

Regarding `COC(=O)Nc1ccc(-c2nc(N3CCOCC3)c3cnn(C4CCN(C(=O)c5ccc(F)cc5F)CC4)c3n2)cc1` [Compound 693, methyl (4-{1-[1-(2,4-difluorobenzoyl)piperidin-4-yl]-4-morpholin-4-yl-1H-pyrazolo[3,4-d]pyrimidin-6-yl}phenyl)carbamate], the pIC50 was 6.10.

Turning to `COC(=O)Nc1ccc(-c2nc(N3CCOCC3)c3cnn(C4CCN(Cc5cccnc5OC)CC4)c3n2)cc1` [Compound 696, methyl [4-(1-{1-[(2-methoxypyridin-3-yl)methyl]piperidin-4-yl}-4-morpholin-4-yl-1H-pyrazolo[3,4-d]pyrimidin-6-yl)phenyl]carbamate], the pIC50 was 5.74.

Consider `COC(=O)Nc1ccc(-c2nc(N3CCOCC3)c3cnn(C4CCN(Cc5ccc(Cl)nc5)CC4)c3n2)cc1` [Compound 698, methyl [4-(1-{1-[(6-chloropyridin-3-yl)methyl]piperidin-4-yl}-4-morpholin-4-yl-1H-pyrazolo[3,4-d]pyrimidin-6-yl)phenyl]carbamate], for which the negative logarithm of the IC50 (pIC50) was 6.21.

With `COC(=O)Nc1ccc(-c2nc(N3CCOCC3)c3cnn(C4CCN(Cc5ccccc5Cl)CC4)c3n2)cc1` [Compound 699, methyl (4-{1-[1-(2-chlorobenzyl)piperidin-4-yl]-4-morpholin-4-yl-1H-pyrazolo[3,4-d]pyrimidin-6-yl}phenyl)carbamate], the pIC50 was 6.10.

On to `COC(=O)Nc1ccc(-c2nc(N3CCOCC3)c3cnn(C4CCN(CC(N)=O)CC4)c3n2)cc1` [Compound 700, methyl (4-{1-[1-(2-amino-2-oxoethyl)piperidin-4-yl]-4-morpholin-4-yl-1H-pyrazolo[3,4-d]pyrimidin-6-yl}phenyl)carbamate], for which the pIC50 was 5.84.

On to `COC(=O)Nc1ccc(-c2nc(N3CCOCC3)c3cnn(C4CCN(CC(=O)c5ccccc5)CC4)c3n2)cc1` [Compound 701, methyl (4-{4-morpholin-4-yl-1-[1-(2-oxo-2-phenylethyl)piperidin-4-yl]-1H-pyrazolo[3,4-d]pyrimidin-6-yl}phenyl)carbamate], for which the pIC50 is 6.23.

Consider `C=CC(=O)N1CCC(n2ncc3c(N4CCOCC4)nc(-c4ccc(NC(=O)OC)cc4)nc32)CC1` [Compound 702, methyl {4-[1-(1-acryloylpiperidin-4-yl)-4-morpholin-4-yl-1H-pyrazolo[3,4-d]pyrimidin-6-yl]phenyl}carbamate], for which the pIC50 is 5.70.

Regarding `COC(=O)Nc1ccc(-c2nc(N3CCOCC3)c3cnn(C4CCNCC4)c3n2)cc1` [Compound 703, methyl [4-(4-morpholin-4-yl-1-piperidin-4-yl-1H-pyrazolo[3,4-d]pyrimidin-6-yl)phenyl]carbamate], the pIC50 is 5.97.

Consider `Nc1ccc(-c2nc(N3CCOCC3)c3cnn(C4CCN(C(=O)c5cccnc5)CC4)c3n2)c(F)c1` [Compound 704, 3-fluoro-4-{4-morpholin-4-yl-1-[1-(pyridin-3-ylcarbonyl)piperidin-4-yl]-1H-pyrazolo[3,4-d]pyrimidin-6-yl}aniline], for which the pIC50 was 5.39.

For the molecule `CCNC(=O)Nc1ccc(-c2nc(N3CCOCC3)c3cnn(C4CCN(C(=O)c5cccnc5)CC4)c3n2)c(F)c1` [Compound 706, 1-ethyl-3-(3-fluoro-4-{4-morpholin-4-yl-1-[1-(pyridin-3-ylcarbonyl)piperidin-4-yl]-1H-pyrazolo[3,4-d]pyrimidin-6-yl}phenyl)urea], the negative-log IC50 (pIC50) is 5.79.

Take `O=C(NCCF)Nc1ccc(-c2nc(N3CCOCC3)c3cnn(C4CCN(C(=O)c5cccnc5)CC4)c3n2)c(F)c1` [Compound 707, 1-(2-fluoroethyl)-3-(3-fluoro-4-{4-morpholin-4-yl-1-[1-(pyridin-3-ylcarbonyl)piperidin-4-yl]-1H-pyrazolo[3,4-d]pyrimidin-6-yl}phenyl)urea]: the negative logarithm of the IC50 (pIC50) was 5.76.

For the molecule `CCNC(=O)Nc1cc(F)c(-c2nc(N3CCOCC3)c3cnn(C4CCN(C(=O)c5cccnc5)CC4)c3n2)cc1F` [Compound 710, 1-(2,5-difluoro-4-{4-morpholin-4-yl-1-[1-(pyridin-3-ylcarbonyl)piperidin-4-yl]-1H-pyrazolo[3,4-d]pyrimidin-6-yl}phenyl)-3-ethylurea], the negative logarithm of the IC50 (pIC50) was 5.51.

On to `O=C(NCCF)Nc1cc(F)c(-c2nc(N3CCOCC3)c3cnn(C4CCN(C(=O)c5cccnc5)CC4)c3n2)cc1F` [Compound 711, 1-(2,5-difluoro-4-{4-morpholin-4-yl-1-[1-(pyridin-3-ylcarbonyl)piperidin-4-yl]-1H-pyrazolo[3,4-d]pyrimidin-6-yl}phenyl)-3-(2-fluoroethyl)urea], for which the pIC50 is 5.53.

On to `O=C(Nc1cc(F)c(-c2nc(N3CCOCC3)c3cnn(C4CCN(C(=O)c5cccnc5)CC4)c3n2)cc1F)NC1CC1` [Compound 712, 1-cyclopropyl-3-(2,5-difluoro-4-{4-morpholin-4-yl-1-[1-(pyridin-3-ylcarbonyl)piperidin-4-yl]-1H-pyrazolo[3,4-d]pyrimidin-6-yl}phenyl)urea], for which the pIC50 is 5.45.

Regarding `O=C(Nc1ccccc1)Nc1cc(F)c(-c2nc(N3CCOCC3)c3cnn(C4CCN(C(=O)c5cccnc5)CC4)c3n2)cc1F` [Compound 713, 1-(2,5-difluoro-4-{4-morpholin-4-yl-1-[1-(pyridin-3-ylcarbonyl)piperidin-4-yl]-1H-pyrazolo[3,4-d]pyrimidin-6-yl}phenyl)-3-phenylurea], the pIC50 was 6.76.

For `FC(F)(F)CN1CCC(n2ncc3c(N4CCOCC4)nc(-c4ccc5[nH]ccc5c4)nc32)CC1` [Compound 715, 6-(1H-indol-5-yl)-4-morpholin-4-yl-1-[1-(2,2,2-trifluoroethyl)piperidin-4-yl]-1H-pyrazolo[3,4-d]pyrimidine], the pIC50 was 5.54.

As for `CNC(=O)Nc1ccc(-c2nc(N3CCOCC3)c3cnn(C4CCN(C(=O)COC)CC4)c3n2)cc1` [Compound 718, 1-(4-{1-[1-(methoxyacetyl)piperidin-4-yl]-4-morpholin-4-yl-1H-pyrazolo[3,4-d]pyrimidin-6-yl}phenyl)-3-methylurea], the pIC50 was 6.54.

As to `CC(=O)Nc1ccc(-c2nc(N3CCOCC3)c3cnn(C4CCCCO4)c3n2)cc1` (stereo not shown) [Compound 925, N-{4-[4-morpholin-4-yl-1-(tetrahydro-2H-pyran-2-yl)-1H-pyrazolo[3,4-d]pyrimidin-6-yl]phenyl}acetamide], the negative logarithm of the IC50 (pIC50) is 5.78.

As for `CNC(=O)Nc1ccc(-c2nc(N3CCOCC3)c3cn[nH]c3n2)cc1` [Compound 927, 1-methyl-3-[4-(4-morpholin-4-yl-1H-pyrazolo[3,4-d]pyrimidin-6-yl)phenyl]urea], the pIC50 was 6.98.

As to `c1cc2cc(-c3nc(N4CCOCC4)c4cn[nH]c4n3)ccc2[nH]1` [Compound 929, 6-(1H-indol-5-yl)-4-morpholin-4-yl-1H-pyrazolo[3,4-d]pyrimidine], the pIC50 is 6.03.
